# Entries after “also recorded” stand apart in the source; their conditions may differ. Read-outs that look alike come from different tables or passages of the source.
# How the values were obtained:
# [1] = test system: chronic heart failure mice; assay: Pharmacodynamic comparison of LCZ696 and compound 2 in chronic heart failure mice (echocardiography); format: in vivo; conditions: for CO / EF / FS / HR: Compound 2 group; for EF, day 28 vs day 0 (words) / short-axis shortening rate (FS %), day 28 vs day 0 (words): chronic heart failure mice, p<0.0005 (FIG. 8)
# Excerpt: With EF<50%, chronic heart failure mice were selected.
# The mice were detected by cardiac ultrasound after 28 days of administration.
# [2] = Stability test of compound 2 in fresh rat whole blood; format: in vitro ADME; set-up: half-life: dose or concentration left out as unconfirmed
# Protocol: Preparation of the tested product: Compound 2 was dissolved with an appropriate amount of dimethyl sulfoxide (DMSO) to obtain a 400 μM solution.
# 1) Fresh rat whole blood is added to the EP tube and shaken gently to mix.
# 2) Pre-incubate the EP tube in a water bath at 37° C. for 5 minutes.
# 3) Add Compound 2 and incubate at 37° C.
# 4) Every 50 μL of sample was taken from the sample tube to the stop tube (containing 5 μL internal standard, 5 μg/mL tolbutamide) at 0, 3 min, 6 min, 15 min, 30 min, and 60 min. 150 μL of acetonitrile was added and shaked to stop reaction, which was incubated in PBS system for 0 and 60 min.
# 5) Centrifuge for 5 min at 4° C. (13000 r/min), aspirate the supernatant, and analyze the sample.
# 50 μL of rat whole blood was added with 5 μL of internal standard working solution (5 μg/mL tolbutamide). 150 μL of acetonitrile was used to precipitate the proteins. The sample was centrifuged at 13,000 rpm and 4° C. for 5 min. The upper organic phase was taken and filtered with a 0.22 μM microporous membrane, which was then analyzed by LC-MS/MS. […]
# The In residual rate of compound 2 in the incubation system was plotted against the incubation time, and the slope k was obtained by linear regression. T1/2 (min) was calculated according to the formula (T1/2=−0.693/k).
# [3] = Metabolic stability in human liver microsomes; format: in vitro ADME
# Protocol: Preparation of the test sample: Compound 1 (prepared in Example 5), 2 (prepared in Example 4), and 5 (cycloastragenol, purchased from Chengdu Jintaihe Company) were dissolved with an appropriate amount of DMSO to obtain a concentration of 10 mM solution.
# 1) The compound was diluted with DMSO to 0.5 mM, and diluted to 1/20 with PBS before the experiment.
# 2) Human liver microsomes and potassium phosphate buffer were added to the EP tube respectively and mixed by gentle shaking.
# 3) Pre-incubate the EP tube in a metal bath at 37° C. for 5 minutes. 4) Compound 1, 2 or 5 were added and incubated at 37° C.
# 5) Take 100 μl of sample from the tube at 0, 60, 120, 240, and 360 minutes respectively, and add the sample to the stop tube (containing 100 μl of cooled acetonitrile solution). The mixture was shaken vigorously to terminate the reaction and then placed it in a −30° C. refrigerator until analysis.
# 6) Centrifuge at 14300 r/min and 4° C. for 10 minutes, aspirate the supernatant and place it in a −30° C. refrigerator until analysis.
# Column: Shim-pack XR-ODS II, 2.0×75 mm; mobile phase: mobile phase B: aqueous solution containing 0.2% formic acid; mobile phase A: acetonitrile solution; mobile phase ratio: […]
# [4] = Metabolic stability in rat liver microsomes; format: in vitro ADME
# [5] = Solubility test in water and FaSSIF; format: physicochemical; conditions: thermodynamic from solid, 37° C., up to 24 hours, read-out: Solubility
# [6] = chronic heart failure mice (FIG. 9)
# [7] = compared with compound 5 (cycloastragenol)
compound,measurement,setting,value
"CC(C)(O)[C@@H]1CC[C@](C)([C@H]2[C@@H](O)C[C@@]3(C)[C@@H]4C[C@H](O)[C@H]5C(C)(C)C(F)(F)CC[C@@]56C[C@@]46CC[C@]23C)O1 [Compound 2, (2aR,3R,4S,5aS,5bS,7S,7aR,11aR,12aS)-9,9-difluoro-3-((2R,5S)-5-(2-hydroxypropan-2-yl)-2-methyltetrahydrofuran-2-yl)-2a,5a,8,8-tetramethyltetradecahydro-1H,12H-cyclopenta[a]cyclopropa[e]phenanthrene-4,7-diol]",melting point,,189 to 192 °C
same,CO,[1]; Day 0,33.39 ± 2.45 mL/min
same,EF,[1]; Day 0,25.04 ± 1.87%
same,FS,[1]; Day 0,9.65 ± 0.84 %
same,HR,[1]; Day 0,564.5 ± 14.96 times/min
same,CO,[1]; Day 28,48.09 ± 3.69 mL/min
same,EF,[1]; Day 28,43.83 ± 3.62 %
same,FS,[1]; Day 28,18.86 ± 2.17%
same,HR,[1]; Day 28,579.3 ± 12.44 times/min
same,"Cardiac output per minute (CO), day 28 vs day 0 (words)",[1]; [6],significantly improved
same,"Heart rate (HR), day 28 vs day 0",[1]; [6],no significant change
same,"Cardiac output per minute (CO), day 28 vs day 0 (words)","[1]; chronic heart failure mice (FIG. 9), listed as compound 2",increased significantly
same,"EF, day 28 vs day 0 (words)",[1],significantly improved
same,"short-axis shortening rate (FS %), day 28 vs day 0 (words)",[1],significantly improved
same,"EF, day 28 vs day 0 (words)",[1]; listed as compound 2,significantly increased
same,"short-axis shortening rate (FS %), day 28 vs day 0 (words)",[1]; listed as compound 2,more significant
same,left ventricular ejection fraction EF % increased by,"[1]; compound 2 group, after 28 days of administration",75.04%
same,half-life,"[2]; fresh rat whole blood, rat whole blood, 37° C., 0-60 min, read-out: In vitro T1/2",10.7 h
same,stability in rat whole blood,"[2]; incubation 3, 6, 15, 30 and 60 min",relatively stable
same,metabolic stability in human liver microsomes,[3]; [7],relatively stable; also recorded: more stable than cycloastragenol
same,half-life at 5 µM,"[3]; human, liver microsomes, 5 μM compound, 1 mg/mL microsomes, 37° C.",7.3 h
same,metabolic stability in rat liver microsomes,[4]; [7],relatively stable; also recorded: more stable than cycloastragenol
same,half-life at 5 µM,"[4]; liver microsomes, 5 μM compound, 37° C.",8.63 h
same,Solubility,[5]; FaSSIF (pH 6.5),15 µg/mL
same,Solubility,[5]; Water,2 µg/mL
